Results taken from US20250049759A1, “PHARMACEUTICAL PREPARATION FOR ASSISTING IN PROMOTING SLEEP AND PREPARATION METHOD THEREOF” (Changde Jizhi Biological Technology Co., Ltd, priority 2023, published 2025).

Tested on: Kunming mice
Test: Effects on sleep in mice: pentobarbital sodium of suprathreshold dose, sleep latency and duration
Assay type: in vivo
Settings: gavage once a day for two consecutive weeks (diazepam 0.75 mg/kg; melatonin 75 mg/kg; embodiment/comparative raw material 3.5 g/kg), 50 mg/kg pentobarbital sodium i.p. 60 minutes after last administration, n=10
Source text: • Test group 1: diazepam group. • Test group 2: melatonin group. • Test group 3: diazepam+embodiment 1 group. • Test group 4: diazepam+embodiment 4 group. • Test group 5: diazepam+embodiment 5 group. • Test group 6: diazepam+comparative example 1 group. • Test group 7: diazepam+comparative example 2 group.
Note: embodiments and comparative examples were concentrated and dried to obtain test raw materials.
Test animals: Kunming mice, 18-22 g. (specific pathogen free (SPF) grade, provided by the Pharmacology Department of Traditional Chinese Medicine, Beijing University of Chinese Medicine).
Test method: The mice were randomly divided into a control group and a test group. The test group 1: diazepam of 0.75 mg/kg was administrated by gavage once a day for two consecutive weeks. The test group 2: melatonin of 75 mg/kg was administrated by gavage once a day for two consecutive weeks. The test group 3 to test group 7: after administrating diazepam of 0.75 mg/kg by gavage, 3.5 g/kg of the raw material of the embodiment or comparative example is administrated once a day for two consecutive weeks. After 60 minutes of the last intragastric administration, the mice in each group were injected with 50 mg/kg pentobarbital sodium intraperitoneally, and the sleep latency and sleep duration of the mice in each group were recorded with the disappearance of righting reflex more than […] as the sleep standard.

Structure (SMILES) | Sleep duration | Sleep latency
CN1C(=O)CN=C(c2ccccc2)c2cc(Cl)ccc21 [Test group 1, diazepam] | 126.37 ± 6.17 min | 2.47 ± 0.27 min
COc1ccc2[nH]cc(CCNC(C)=O)c2c1 [Test group 2, melatonin] | 64.38 ± 3.70 min | 4.38 ± 0.35 min
